Laboratory results reported in ChEMBL document CHEMBL5696442, “Discovery of type II inhibitors of TGFβ-activated kinase 1 (TAK1) and mitogen-activated protein kinase kinase kinase kinase 2 (MAP4K2)” (J Med Chem, 2015).

Tests used:
[1] = target: T1, Inhibitor of nuclear factor kappa-B kinase subunit epsilon (Homo sapiens) (UniProt Q14164); test: Inhibition of IKKe Lys2 labeling site in human Huh-7 cells at 1 uM by KiNativ Profiling analysis relative to control; type: cell-based
T1 sequence (whole entry): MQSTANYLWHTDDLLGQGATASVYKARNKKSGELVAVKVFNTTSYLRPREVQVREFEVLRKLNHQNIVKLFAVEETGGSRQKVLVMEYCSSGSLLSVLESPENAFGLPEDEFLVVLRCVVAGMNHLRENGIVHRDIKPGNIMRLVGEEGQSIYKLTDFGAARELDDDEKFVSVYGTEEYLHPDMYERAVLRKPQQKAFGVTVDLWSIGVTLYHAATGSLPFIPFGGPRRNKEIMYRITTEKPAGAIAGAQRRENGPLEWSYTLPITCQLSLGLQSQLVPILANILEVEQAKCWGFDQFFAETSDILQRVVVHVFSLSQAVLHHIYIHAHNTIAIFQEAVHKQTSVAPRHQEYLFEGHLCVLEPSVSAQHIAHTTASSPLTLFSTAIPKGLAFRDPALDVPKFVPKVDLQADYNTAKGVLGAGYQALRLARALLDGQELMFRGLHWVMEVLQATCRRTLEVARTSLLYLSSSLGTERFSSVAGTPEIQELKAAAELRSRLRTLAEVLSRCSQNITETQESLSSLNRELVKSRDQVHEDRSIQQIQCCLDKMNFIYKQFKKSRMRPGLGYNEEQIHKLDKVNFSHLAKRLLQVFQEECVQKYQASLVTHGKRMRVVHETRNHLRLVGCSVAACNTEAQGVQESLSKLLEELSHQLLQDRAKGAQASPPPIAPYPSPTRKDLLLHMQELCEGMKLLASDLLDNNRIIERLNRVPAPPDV

[2] = target: Rho-associated protein kinase 2 (Homo sapiens) (UniProt O75116); test: Inhibition of ROCK2 Lys2 labeling site in human Huh-7 cell lysate at 1 uM by KiNativ Profiling analysis relative to control; type: subcellular
[3] = target: T2, Serine/threonine-protein kinase TBK1 (Homo sapiens) (UniProt Q9UHD2); test: Inhibition of TBK1 Lys2 labeling site in human Huh-7 cells at 1 uM by KiNativ Profiling analysis relative to control; type: cell-based
T2 sequence (whole entry): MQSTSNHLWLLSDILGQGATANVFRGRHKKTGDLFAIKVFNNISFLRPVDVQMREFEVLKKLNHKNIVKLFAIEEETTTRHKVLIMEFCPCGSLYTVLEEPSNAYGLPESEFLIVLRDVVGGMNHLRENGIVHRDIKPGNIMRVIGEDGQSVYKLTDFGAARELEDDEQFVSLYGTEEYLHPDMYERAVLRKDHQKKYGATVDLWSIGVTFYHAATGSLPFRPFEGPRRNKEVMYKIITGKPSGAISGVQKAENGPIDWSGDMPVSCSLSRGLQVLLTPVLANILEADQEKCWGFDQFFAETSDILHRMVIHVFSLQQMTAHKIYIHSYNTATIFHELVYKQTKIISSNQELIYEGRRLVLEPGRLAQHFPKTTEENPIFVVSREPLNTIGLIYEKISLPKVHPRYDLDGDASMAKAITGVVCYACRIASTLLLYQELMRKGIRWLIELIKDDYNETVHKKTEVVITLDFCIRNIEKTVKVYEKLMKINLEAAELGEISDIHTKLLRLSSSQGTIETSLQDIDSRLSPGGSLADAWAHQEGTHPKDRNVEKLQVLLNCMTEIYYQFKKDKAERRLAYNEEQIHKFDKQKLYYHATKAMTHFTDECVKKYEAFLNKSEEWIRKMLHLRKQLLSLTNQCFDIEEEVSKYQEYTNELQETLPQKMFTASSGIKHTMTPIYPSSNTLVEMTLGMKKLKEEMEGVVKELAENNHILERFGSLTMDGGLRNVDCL

[4] = target: Tyrosine-protein kinase ITK/TSK (Homo sapiens) (UniProt Q08881); test: Inhibition of ITK (unknown origin) at 1 uM by Ambit Kinomescan binding assay relative to control
[5] = system: Epidermal growth factor receptor (Homo sapiens), P00533 [UNDEFINED MUTATION]; test: Inhibition of EGFR L747-E749del/A750P mutant (unknown origin) at 1 uM by Ambit Kinomescan binding assay relative to control
[6] = target: Serine/threonine-protein kinase 38-like (Homo sapiens) (UniProt Q9Y2H1); test: Inhibition of NDR2 (unknown origin) at 1 uM by Ambit Kinomescan binding assay relative to control; values are per cent of control
[7] = target: Cytoplasmic tyrosine-protein kinase BMX (Homo sapiens) (UniProt P51813); test: Inhibition of BMX (unknown origin) at 10 uM by Ambit Kinomescan binding assay relative to control
[8] = target: T3, PAN2-PAN3 deadenylation complex subunit PAN3 (Homo sapiens) (UniProt Q58A45); test: Inhibition of PAN3 ATP labeling site in human A-375 cells at 0.05 uM by KiNativ Profiling analysis relative to control; type: cell-based
T3 sequence (whole entry): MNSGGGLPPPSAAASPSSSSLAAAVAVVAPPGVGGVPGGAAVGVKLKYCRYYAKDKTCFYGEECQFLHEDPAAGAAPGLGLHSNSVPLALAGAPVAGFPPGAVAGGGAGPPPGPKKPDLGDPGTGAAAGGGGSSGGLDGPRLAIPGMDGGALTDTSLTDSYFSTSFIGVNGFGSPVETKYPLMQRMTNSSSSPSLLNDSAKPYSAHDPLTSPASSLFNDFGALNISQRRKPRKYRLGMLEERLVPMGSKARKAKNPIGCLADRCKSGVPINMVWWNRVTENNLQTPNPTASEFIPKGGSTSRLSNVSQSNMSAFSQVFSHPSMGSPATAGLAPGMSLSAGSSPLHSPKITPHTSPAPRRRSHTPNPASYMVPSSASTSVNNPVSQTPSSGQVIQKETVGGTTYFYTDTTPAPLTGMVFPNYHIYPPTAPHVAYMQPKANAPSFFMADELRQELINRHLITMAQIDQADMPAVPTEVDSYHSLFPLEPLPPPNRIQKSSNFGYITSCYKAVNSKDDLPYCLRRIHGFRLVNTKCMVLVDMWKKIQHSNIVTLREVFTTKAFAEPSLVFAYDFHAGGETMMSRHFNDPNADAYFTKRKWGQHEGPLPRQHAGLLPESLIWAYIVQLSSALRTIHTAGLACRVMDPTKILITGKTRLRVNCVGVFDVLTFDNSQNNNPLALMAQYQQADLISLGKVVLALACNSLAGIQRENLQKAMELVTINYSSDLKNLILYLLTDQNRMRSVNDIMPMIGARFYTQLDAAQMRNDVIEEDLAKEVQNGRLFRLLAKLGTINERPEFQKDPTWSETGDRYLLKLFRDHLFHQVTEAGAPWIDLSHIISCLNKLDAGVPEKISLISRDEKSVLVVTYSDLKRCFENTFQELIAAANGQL

[9] = target: Ribosomal protein S6 kinase alpha-4 (Homo sapiens) (UniProt O75676); test: Inhibition of C-terminal RPS6KA4 kinase domain 2 (unknown origin) at 10 uM by Ambit Kinomescan binding assay; values are per cent of control
Sequence of Ribosomal protein S6 kinase alpha-4 (Homo sapiens) (O75676 whole entry, looked up, the tested form may be a part): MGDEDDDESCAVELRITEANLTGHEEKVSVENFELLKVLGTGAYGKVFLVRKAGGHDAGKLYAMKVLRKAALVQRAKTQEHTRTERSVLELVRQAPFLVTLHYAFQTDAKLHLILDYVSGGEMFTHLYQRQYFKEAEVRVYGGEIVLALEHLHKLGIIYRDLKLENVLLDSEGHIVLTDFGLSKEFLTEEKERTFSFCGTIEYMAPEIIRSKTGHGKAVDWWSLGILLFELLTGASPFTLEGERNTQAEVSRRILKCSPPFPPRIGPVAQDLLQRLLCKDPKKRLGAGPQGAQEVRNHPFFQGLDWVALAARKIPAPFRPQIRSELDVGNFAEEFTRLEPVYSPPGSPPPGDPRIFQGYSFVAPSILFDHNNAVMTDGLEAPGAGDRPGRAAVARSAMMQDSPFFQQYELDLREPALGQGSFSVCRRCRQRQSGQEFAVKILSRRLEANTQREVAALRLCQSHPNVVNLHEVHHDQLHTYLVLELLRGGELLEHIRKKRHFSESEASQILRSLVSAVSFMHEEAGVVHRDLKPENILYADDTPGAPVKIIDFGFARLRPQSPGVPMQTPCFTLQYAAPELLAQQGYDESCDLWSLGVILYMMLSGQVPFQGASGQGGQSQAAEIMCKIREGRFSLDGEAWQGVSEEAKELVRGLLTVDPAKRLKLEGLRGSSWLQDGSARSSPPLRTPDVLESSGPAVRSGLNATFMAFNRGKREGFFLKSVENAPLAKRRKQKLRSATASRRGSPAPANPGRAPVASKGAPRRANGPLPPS

Sequence of Rho-associated protein kinase 2 (Homo sapiens) (O75116 whole entry, looked up): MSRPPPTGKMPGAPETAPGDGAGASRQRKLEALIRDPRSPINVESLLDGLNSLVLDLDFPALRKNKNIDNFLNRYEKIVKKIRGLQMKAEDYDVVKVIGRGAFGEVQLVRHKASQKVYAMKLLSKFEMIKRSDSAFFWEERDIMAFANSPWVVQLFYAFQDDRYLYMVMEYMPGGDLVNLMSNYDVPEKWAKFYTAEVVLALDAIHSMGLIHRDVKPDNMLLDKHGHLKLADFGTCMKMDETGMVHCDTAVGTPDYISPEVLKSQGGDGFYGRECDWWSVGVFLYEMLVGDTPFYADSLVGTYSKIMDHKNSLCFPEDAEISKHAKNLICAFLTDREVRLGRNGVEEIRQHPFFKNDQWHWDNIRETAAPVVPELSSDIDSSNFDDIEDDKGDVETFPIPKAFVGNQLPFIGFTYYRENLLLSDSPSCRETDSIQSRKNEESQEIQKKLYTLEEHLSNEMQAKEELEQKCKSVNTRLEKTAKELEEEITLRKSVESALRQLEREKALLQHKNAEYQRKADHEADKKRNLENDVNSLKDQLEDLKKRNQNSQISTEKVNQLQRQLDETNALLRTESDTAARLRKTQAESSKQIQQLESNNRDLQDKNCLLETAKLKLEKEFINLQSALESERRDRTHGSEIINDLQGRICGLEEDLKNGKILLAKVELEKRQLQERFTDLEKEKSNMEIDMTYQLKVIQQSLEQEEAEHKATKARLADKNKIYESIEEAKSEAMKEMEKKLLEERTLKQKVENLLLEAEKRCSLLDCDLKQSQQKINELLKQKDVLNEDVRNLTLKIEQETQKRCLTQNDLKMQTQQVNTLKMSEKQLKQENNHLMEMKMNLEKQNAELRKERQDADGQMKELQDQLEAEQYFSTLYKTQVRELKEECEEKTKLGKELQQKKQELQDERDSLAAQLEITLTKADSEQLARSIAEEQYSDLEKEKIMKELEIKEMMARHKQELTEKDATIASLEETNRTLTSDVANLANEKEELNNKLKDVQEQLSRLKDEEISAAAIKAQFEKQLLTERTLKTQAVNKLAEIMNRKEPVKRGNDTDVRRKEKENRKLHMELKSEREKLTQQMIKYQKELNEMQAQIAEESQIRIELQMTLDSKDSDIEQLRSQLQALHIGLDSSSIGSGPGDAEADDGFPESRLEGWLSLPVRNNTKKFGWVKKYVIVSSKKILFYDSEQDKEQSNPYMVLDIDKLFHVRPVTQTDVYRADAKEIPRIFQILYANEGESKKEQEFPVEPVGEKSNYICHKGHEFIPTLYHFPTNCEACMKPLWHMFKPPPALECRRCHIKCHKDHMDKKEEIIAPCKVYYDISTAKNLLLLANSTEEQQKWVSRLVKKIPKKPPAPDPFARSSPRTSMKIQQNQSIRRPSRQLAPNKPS
Sequence of Cytoplasmic tyrosine-protein kinase BMX (Homo sapiens) (P51813 whole entry): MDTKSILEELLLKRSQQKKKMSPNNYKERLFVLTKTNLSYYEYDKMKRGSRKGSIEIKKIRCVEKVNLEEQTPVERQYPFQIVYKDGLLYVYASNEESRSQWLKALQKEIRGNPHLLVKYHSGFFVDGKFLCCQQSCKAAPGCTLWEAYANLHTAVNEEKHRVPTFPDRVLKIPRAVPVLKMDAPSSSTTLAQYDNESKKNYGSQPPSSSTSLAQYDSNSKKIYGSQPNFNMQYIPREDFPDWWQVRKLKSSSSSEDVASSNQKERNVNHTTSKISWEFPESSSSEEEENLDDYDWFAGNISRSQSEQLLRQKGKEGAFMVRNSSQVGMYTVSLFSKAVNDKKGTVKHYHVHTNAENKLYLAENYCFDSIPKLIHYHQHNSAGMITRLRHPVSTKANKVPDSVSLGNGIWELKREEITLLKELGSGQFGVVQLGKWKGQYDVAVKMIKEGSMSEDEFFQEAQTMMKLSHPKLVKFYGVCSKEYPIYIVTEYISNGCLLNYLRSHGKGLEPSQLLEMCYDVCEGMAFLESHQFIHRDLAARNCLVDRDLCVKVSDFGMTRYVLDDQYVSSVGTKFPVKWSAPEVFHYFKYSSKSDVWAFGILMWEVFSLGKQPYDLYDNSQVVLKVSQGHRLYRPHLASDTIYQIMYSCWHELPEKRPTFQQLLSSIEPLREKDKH
Sequence of Serine/threonine-protein kinase 38-like (Homo sapiens) (Q9Y2H1 2-464 limits assumed): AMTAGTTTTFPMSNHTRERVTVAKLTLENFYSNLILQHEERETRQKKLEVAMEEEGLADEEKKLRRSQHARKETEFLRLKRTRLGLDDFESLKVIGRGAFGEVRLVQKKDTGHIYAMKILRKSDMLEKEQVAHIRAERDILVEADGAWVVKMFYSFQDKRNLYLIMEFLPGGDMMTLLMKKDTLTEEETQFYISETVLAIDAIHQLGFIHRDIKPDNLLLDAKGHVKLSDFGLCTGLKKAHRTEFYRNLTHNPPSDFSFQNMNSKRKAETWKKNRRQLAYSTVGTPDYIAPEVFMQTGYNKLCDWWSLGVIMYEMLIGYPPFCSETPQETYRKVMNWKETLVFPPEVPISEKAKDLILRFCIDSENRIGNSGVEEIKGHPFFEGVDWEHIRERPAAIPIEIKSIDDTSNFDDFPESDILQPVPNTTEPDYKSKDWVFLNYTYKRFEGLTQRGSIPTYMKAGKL
Sequence of Tyrosine-protein kinase ITK/TSK (Homo sapiens) (Q08881 whole entry): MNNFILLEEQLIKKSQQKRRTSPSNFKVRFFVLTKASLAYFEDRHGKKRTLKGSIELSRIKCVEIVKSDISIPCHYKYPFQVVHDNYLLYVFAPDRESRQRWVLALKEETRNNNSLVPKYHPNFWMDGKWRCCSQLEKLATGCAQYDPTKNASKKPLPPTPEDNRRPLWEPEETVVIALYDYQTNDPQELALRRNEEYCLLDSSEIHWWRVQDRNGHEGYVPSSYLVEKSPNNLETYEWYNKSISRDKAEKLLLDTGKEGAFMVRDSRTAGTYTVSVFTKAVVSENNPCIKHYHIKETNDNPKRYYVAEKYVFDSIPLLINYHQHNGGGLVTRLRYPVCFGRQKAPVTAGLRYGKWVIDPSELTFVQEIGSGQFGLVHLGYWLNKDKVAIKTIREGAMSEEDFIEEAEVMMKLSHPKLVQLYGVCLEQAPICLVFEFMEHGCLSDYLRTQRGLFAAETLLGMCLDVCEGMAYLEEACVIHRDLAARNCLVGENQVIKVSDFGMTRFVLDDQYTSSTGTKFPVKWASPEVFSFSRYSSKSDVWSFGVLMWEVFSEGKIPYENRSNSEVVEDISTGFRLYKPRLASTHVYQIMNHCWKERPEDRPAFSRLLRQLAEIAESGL

Structure (SMILES): CNc1cc(Oc2cc(C(=O)Nc3cc(N4CCN(C)CC4)cc(C(F)(F)F)c3)ccc2C)ncn1
- inhibition [1]: 17.7%
- inhibition [2]: 2.7%
- inhibition [3]: 17.7%

Structure (SMILES): CCN1CCN(Cc2ccc(NC(=O)c3ccc(C)c(/C=C/c4cnc5[nH]ccc5c4OC)c3)cc2C(F)(F)F)CC1
- inhibition [4]: 81%
- inhibition [5]: 3%
- residual activity [6]: 79%

Structure (SMILES): CCN1CCN(Cc2ccc(NC(=O)c3ccc(C)c(Oc4ccnc5[nH]ccc45)c3)cc2C(F)(F)F)CC1
- inhibition [7]: 2.4%
- inhibition [8]: 7%
- percent of control [9]: 4.7%
